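Interpolation was linear, between the two tested concentrations surrounding the appropriate level; five concentrations were tested over 48 hours in 96-well plates. The concentration for 50% growth inhibition is given as GI50.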 Active and inactive are the calls of the source. Rule as the data show it: active = GI50 up to about 1.1 µM and inactive = higher.
How the values were obtained:
Assay in all cases: NCI anticancer screen, dose series, 48 h
786-0 = test system: 786-0
CAKI-1 = test system: CAKI-1
EKVX = test system: EKVX
HT-29 = test system: HT-29
Hs-578T = test system: Hs-578T
K562 = test system: K562
KM12 = test system: KM12
MDA-MB-435 = test system: MDA-MB-435
Malme-3M = test system: Malme-3M
NCI-H226 = test system: NCI-H226
NCI-H23 = test system: NCI-H23
NCI-H460 = test system: NCI-H460
OVCAR-3 = test system: OVCAR-3
OVCAR-5 = test system: OVCAR-5
RXF 393 = test system: RXF 393
SK-MEL-5 = test system: SK-MEL-5
SN12C = test system: SN12C
UACC-62 = test system: UACC-62
HCC 2998 = test system: HCC 2998
MDA-N = test system: MDA-N

Measured: GI50

O=C1C=CC(=NNc2ccccc2)C=CC1=O
inactive: 786-0 18.4 µM | CAKI-1 13.9 µM | EKVX 25.9 µM | HT-29 13.6 µM | Hs-578T 11 µM | K562 7.64 µM | KM12 12.4 µM | MDA-MB-435 12.9 µM | Malme-3M 13.4 µM | NCI-H226 11.7 µM | NCI-H23 14 µM | NCI-H460 11.3 µM | OVCAR-3 10.3 µM | OVCAR-5 20.8 µM | RXF 393 99.8 µM | SK-MEL-5 11.5 µM | SN12C 16.7 µM | UACC-62 12.8 µM

ClCc1nc2ccccc2[nH]1
inactive: 786-0 > 100 µM | CAKI-1 > 100 µM | EKVX > 100 µM | HCC 2998 > 100 µM | HT-29 > 100 µM | Hs-578T > 100 µM | K562 > 100 µM | KM12 > 100 µM | MDA-MB-435 > 100 µM | Malme-3M 34.5 µM | NCI-H226 > 100 µM | NCI-H23 > 100 µM | NCI-H460 > 100 µM | OVCAR-3 > 100 µM | OVCAR-5 > 100 µM | RXF 393 > 100 µM | SK-MEL-5 > 100 µM | SN12C > 100 µM | UACC-62 > 100 µM

CSc1nc2nc(C(O)C(O)C(O)CO)cnc2c(=O)[nH]1 (configuration not stated)
inactive: 786-0 > 100 µM | CAKI-1 > 100 µM | EKVX > 100 µM | HCC 2998 > 100 µM | HT-29 > 100 µM | K562 > 10 µM | KM12 > 100 µM | Malme-3M > 100 µM | NCI-H226 > 100 µM | NCI-H23 > 100 µM | NCI-H460 > 100 µM | OVCAR-3 34 µM | OVCAR-5 > 100 µM | RXF 393 > 100 µM | SK-MEL-5 > 100 µM | SN12C > 100 µM | UACC-62 > 100 µM

CC12CCC(/C(=N/c3cc(C(F)(F)F)cc(C(F)(F)F)c3)C1=O)C2(C)C (configuration not stated)
inactive: 786-0 35.5 µM | CAKI-1 44 µM | EKVX 78.7 µM | HCC 2998 26.3 µM | HT-29 68.5 µM | K562 29.6 µM | KM12 26.4 µM | MDA-MB-435 38.3 µM | Malme-3M 33.4 µM | NCI-H226 86.7 µM | NCI-H23 25.7 µM | NCI-H460 33.4 µM | OVCAR-3 33.7 µM | OVCAR-5 56.4 µM | RXF 393 12.3 µM | SK-MEL-5 48.2 µM | UACC-62 31.3 µM

Cc1[nH]nc2c1C(=O)C=C(N(CCO)c1ccccc1)C2=O
inactive: 786-0 > 100 µM | CAKI-1 > 100 µM | EKVX > 100 µM | HCC 2998 > 100 µM | HT-29 > 100 µM | K562 > 100 µM | KM12 > 100 µM | Malme-3M > 100 µM | NCI-H226 > 100 µM | NCI-H23 > 100 µM | OVCAR-3 > 100 µM | RXF 393 > 100 µM | SK-MEL-5 > 100 µM | SN12C > 100 µM | UACC-62 > 100 µM

Cc1ccc2nc(-c3ccc(N)c(I)c3)sc2c1
inactive: 786-0 15.8 µM | CAKI-1 > 100 µM | EKVX 29 µM | HCC 2998 6.75 µM | HT-29 18.9 µM | Hs-578T 31 µM | K562 21.3 µM | KM12 5.87 µM | MDA-MB-435 19.2 µM | Malme-3M 36.1 µM | NCI-H226 16 µM | NCI-H460 18.2 µM | OVCAR-3 21.8 µM | OVCAR-5 35.9 µM | RXF 393 24 µM | SK-MEL-5 29.4 µM | UACC-62 32.5 µM

Cc1cc2ccccc2n2c1nc1ccc(O)cc12
inactive: 786-0 > 10 µM | CAKI-1 > 10 µM | EKVX > 10 µM | HCC 2998 > 10 µM | HT-29 > 10 µM | Hs-578T > 10 µM | K562 > 10 µM | KM12 > 10 µM | MDA-MB-435 > 10 µM | Malme-3M > 10 µM | NCI-H23 > 10 µM | NCI-H460 5.36 µM | OVCAR-3 > 10 µM | OVCAR-5 > 10 µM | RXF 393 > 10 µM | SK-MEL-5 > 10 µM | SN12C 9.35 µM | UACC-62 > 10 µM

COc1cc(C(=O)Nc2cccc3ccccc23)c(Br)c(OC)c1OC
inactive: 786-0 1.38 µM | CAKI-1 > 100 µM | EKVX > 100 µM | HCC 2998 > 100 µM | HT-29 > 100 µM | K562 43.5 µM | KM12 70.3 µM | Malme-3M 67.6 µM | NCI-H226 36.3 µM | NCI-H23 82 µM | NCI-H460 64.9 µM | OVCAR-3 > 100 µM | OVCAR-5 64.4 µM | RXF 393 42.7 µM | SK-MEL-5 41.1 µM | SN12C > 100 µM | UACC-62 45.2 µM

Clc1nc(Cl)c(Cl)c(-c2ccccc2)n1
inactive: 786-0 2.21 µM | EKVX 16.6 µM | HCC 2998 22.2 µM | HT-29 1.68 µM | Hs-578T 2.73 µM | K562 1.44 µM | KM12 5.02 µM | MDA-MB-435 14.6 µM | Malme-3M 5.61 µM | NCI-H226 24.3 µM | NCI-H23 15.8 µM | NCI-H460 9.46 µM | OVCAR-3 2.05 µM | OVCAR-5 20.3 µM | RXF 393 13.6 µM | SK-MEL-5 2.43 µM | SN12C 20 µM

N#C/C(=C\c1cc(Cl)cc(Cl)c1)c1ccccn1
inactive: 786-0 21.5 µM | CAKI-1 13.6 µM | EKVX 3.46 µM | HCC 2998 31 µM | HT-29 18.2 µM | K562 3.95 µM | KM12 9.59 µM | MDA-N 10.1 µM | Malme-3M > 100 µM | NCI-H226 5.47 µM | NCI-H23 6.35 µM | NCI-H460 7.83 µM | OVCAR-3 26.1 µM | OVCAR-5 > 100 µM | RXF 393 5.11 µM | SK-MEL-5 8.51 µM | SN12C > 100 µM | UACC-62 12 µM

COC(=O)/C(=N\NC(N)=S)C(C(=O)OC)C(=O)C(=O)Nc1ccc(C)cc1 (configuration not stated)
inactive: 786-0 > 100 µM | CAKI-1 > 100 µM | EKVX > 100 µM | HCC 2998 > 100 µM | HT-29 > 100 µM | K562 > 100 µM | KM12 > 100 µM | Malme-3M > 100 µM | NCI-H226 > 100 µM | NCI-H23 > 100 µM | NCI-H460 > 100 µM | OVCAR-3 > 100 µM | OVCAR-5 > 100 µM | RXF 393 > 100 µM | SK-MEL-5 > 100 µM | SN12C > 100 µM | UACC-62 > 100 µM

Sc1nnc(COc2ccc(Cl)cc2)[nH]1
inactive: 786-0 > 100 µM | CAKI-1 > 100 µM | HCC 2998 > 100 µM | HT-29 > 100 µM | K562 > 100 µM | KM12 > 100 µM | Malme-3M > 100 µM | NCI-H226 > 100 µM | NCI-H23 > 100 µM | NCI-H460 > 100 µM | OVCAR-3 > 100 µM | OVCAR-5 > 100 µM | RXF 393 > 100 µM | SK-MEL-5 > 100 µM | SN12C > 100 µM | UACC-62 > 100 µM

CCOC(=O)c1c(N2CCOCC2)[nH]c(=O)c(C(c2ccc(N(C)C)cc2)c2c(O)c(C(=O)OCC)c(N3CCOCC3)[nH]c2=O)c1O
inactive: 786-0 > 100 µM | CAKI-1 > 100 µM | EKVX > 100 µM | HCC 2998 > 100 µM | HT-29 > 100 µM | Hs-578T > 100 µM | K562 > 100 µM | KM12 > 100 µM | MDA-MB-435 > 100 µM | Malme-3M > 100 µM | NCI-H226 > 100 µM | NCI-H23 > 100 µM | NCI-H460 > 100 µM | OVCAR-3 > 100 µM | OVCAR-5 > 100 µM | RXF 393 > 100 µM | SK-MEL-5 > 100 µM | SN12C > 100 µM | UACC-62 > 100 µM

CC(O[Si](C)(C)C(C)(C)C)[C@H](NC(=O)OCC(Cl)(Cl)Cl)C(=O)O (some centres not stated)
inactive: 786-0 > 100 µM | EKVX > 100 µM | HCC 2998 > 100 µM | HT-29 > 100 µM | Hs-578T > 100 µM | K562 > 100 µM | KM12 56 µM | MDA-MB-435 > 100 µM | Malme-3M > 100 µM | NCI-H226 > 100 µM | NCI-H23 95.3 µM | NCI-H460 > 100 µM | OVCAR-3 79.6 µM | OVCAR-5 > 100 µM | RXF 393 > 100 µM | SK-MEL-5 > 100 µM | SN12C > 100 µM | UACC-62 53.5 µM

CN(C)/N=N/c1ccc(C(N)=O)cc1
inactive: 786-0 > 100 µM | CAKI-1 > 100 µM | EKVX > 100 µM | HCC 2998 > 100 µM | HT-29 > 100 µM | K562 > 100 µM | KM12 > 100 µM | Malme-3M > 100 µM | NCI-H226 > 100 µM | NCI-H23 > 100 µM | NCI-H460 > 100 µM | OVCAR-3 > 100 µM | OVCAR-5 > 100 µM | RXF 393 > 100 µM | SK-MEL-5 > 100 µM | SN12C > 100 µM | UACC-62 > 100 µM

OCCCCn1cnc2c(O)ncnc21
inactive: 786-0 > 100 µM | CAKI-1 > 100 µM | EKVX > 100 µM | HCC 2998 > 100 µM | HT-29 > 100 µM | K562 > 100 µM | KM12 > 100 µM | Malme-3M > 100 µM | NCI-H226 > 100 µM | NCI-H23 > 100 µM | NCI-H460 > 100 µM | OVCAR-3 > 100 µM | OVCAR-5 > 100 µM | RXF 393 > 100 µM | SK-MEL-5 > 100 µM | SN12C > 100 µM | UACC-62 > 100 µM

Reference: ChEMBL document CHEMBL1201862, “PubChem BioAssay data set” (2004)
